Measurements reported in PMC11851430, “Workflow for E3 Ligase Ligand Validation for PROTAC Development” (ACS Chemical Biology, 2025).
Read-outs that look alike come from different tables or passages of the source.

Columns and labels:
[1] = target: T1, AURKA (Homo sapiens, UniProt O14965); experiment: cell-based; set-up: species or system HEK293T; NanoBRET tracer displacement in intact cells, NanoLuc fusion protein, Tracer K10; details: intact cells; read-out: AURKA intact (IC50±sd)/µM
T1 sequence (O14965 1-403): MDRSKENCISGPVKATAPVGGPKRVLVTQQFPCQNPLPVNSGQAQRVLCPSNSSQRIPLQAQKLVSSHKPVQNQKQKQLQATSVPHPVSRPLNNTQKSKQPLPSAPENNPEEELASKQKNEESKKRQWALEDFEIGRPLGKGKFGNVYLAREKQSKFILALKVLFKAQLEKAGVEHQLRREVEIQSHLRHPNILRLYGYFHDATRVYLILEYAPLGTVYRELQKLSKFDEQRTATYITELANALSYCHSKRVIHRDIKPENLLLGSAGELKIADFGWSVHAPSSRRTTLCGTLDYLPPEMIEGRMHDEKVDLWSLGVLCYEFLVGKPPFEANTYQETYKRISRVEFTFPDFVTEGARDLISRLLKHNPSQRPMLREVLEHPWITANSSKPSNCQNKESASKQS
Excerpt: Compounds were pipetted at various concentrations using an Echo acoustic dispenser (Labcyte), immediately followed by Tracer K10 (Promega, Tracer DB ID: T000008) for AAK1 and Aurora A and VHL Tracer (Promega, Tracer DB ID: T000019) for VHL, at an optimum KD concentration chosen from TracerDB (tracerdb.org), respectively.

[2] = target: full-length AAK1 (Homo sapiens, UniProt Q2M2I8); experiment: cell-based; set-up: species or system HEK293T; NanoBRET tracer displacement in permeabilized cells, NanoLuc fusion protein, Tracer K10; details: permeabilized cells; read-out: AAK1 permeabilized (IC50±sd)/µM
full-length AAK1, sequence (Q2M2I8 whole entry, the tested form may be a part): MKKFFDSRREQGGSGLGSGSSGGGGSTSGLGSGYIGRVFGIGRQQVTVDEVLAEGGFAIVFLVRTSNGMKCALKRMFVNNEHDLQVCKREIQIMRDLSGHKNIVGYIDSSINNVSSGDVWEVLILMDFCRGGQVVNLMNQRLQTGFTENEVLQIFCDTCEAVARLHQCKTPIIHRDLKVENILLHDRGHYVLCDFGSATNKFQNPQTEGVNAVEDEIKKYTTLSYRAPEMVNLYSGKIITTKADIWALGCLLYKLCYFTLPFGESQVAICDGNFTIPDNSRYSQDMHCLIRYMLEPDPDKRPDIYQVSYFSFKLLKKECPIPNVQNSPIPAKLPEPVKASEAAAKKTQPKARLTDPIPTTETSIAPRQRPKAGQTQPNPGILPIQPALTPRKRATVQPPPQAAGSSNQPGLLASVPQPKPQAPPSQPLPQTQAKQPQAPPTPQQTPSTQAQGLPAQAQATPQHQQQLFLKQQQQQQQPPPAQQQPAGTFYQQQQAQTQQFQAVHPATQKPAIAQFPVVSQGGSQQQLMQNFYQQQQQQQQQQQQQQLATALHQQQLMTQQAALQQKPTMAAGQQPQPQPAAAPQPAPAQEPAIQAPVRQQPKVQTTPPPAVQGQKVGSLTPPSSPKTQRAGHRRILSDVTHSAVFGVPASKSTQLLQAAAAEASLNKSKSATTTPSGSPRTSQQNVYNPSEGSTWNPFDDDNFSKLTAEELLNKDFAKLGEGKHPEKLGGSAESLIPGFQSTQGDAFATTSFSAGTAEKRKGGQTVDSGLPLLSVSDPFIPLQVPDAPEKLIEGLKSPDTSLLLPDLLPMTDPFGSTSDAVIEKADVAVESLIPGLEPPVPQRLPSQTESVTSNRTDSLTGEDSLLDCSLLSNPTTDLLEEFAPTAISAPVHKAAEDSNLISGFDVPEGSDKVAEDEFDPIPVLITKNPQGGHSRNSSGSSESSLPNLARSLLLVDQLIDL

[3] = target: T1, AURKA; experiment: cell-based; set-up: species or system HEK293T; NanoBRET tracer displacement in permeabilized cells, NanoLuc fusion protein, Tracer K10; details: permeabilized cells; read-out: AURKA permeabilized (IC50±sd)/µM
[4] = target: T2, kinase protein levels in MCF-7 cells (Homo sapiens, UniProt A0A024RBG1); experiment: TMT-labeled quantitative proteomics; assay type: cell-based; details: protein NUDT4B; MCF7; 1 µM; set2
T2 construct: endogenous in cells; host or cells: MCF-7
T2 sequence (A0A024RBG1 whole entry): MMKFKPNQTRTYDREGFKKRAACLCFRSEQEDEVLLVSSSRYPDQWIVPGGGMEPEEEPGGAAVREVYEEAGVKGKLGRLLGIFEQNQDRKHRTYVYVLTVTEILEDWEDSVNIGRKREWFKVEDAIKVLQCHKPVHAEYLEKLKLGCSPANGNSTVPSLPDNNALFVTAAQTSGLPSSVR

[5] = target: T3, kinase protein levels in MCF-7 cells (Homo sapiens, UniProt P0DPI2); experiment: TMT-labeled quantitative proteomics; assay type: cell-based; details: protein GATD3; MCF7; 1 µM; set2
T3 construct: endogenous in cells; host or cells: MCF-7
T3 sequence (P0DPI2 42-268): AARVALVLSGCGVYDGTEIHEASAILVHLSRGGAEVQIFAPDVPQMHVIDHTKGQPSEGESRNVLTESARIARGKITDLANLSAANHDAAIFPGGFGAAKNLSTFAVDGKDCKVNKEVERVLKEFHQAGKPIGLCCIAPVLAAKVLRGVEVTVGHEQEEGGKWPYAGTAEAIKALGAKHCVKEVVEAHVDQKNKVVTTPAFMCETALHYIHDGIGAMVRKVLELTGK

| IC50 [1] [µM] | IC50 [2] [µM] | IC50 [3] [µM] | P.Value (compound/DMSO) [4] | log2FC (compound/DMSO) [4] | P.Value (compound/DMSO) [5] | log2FC (compound/DMSO) [5] | SMILES |
| --- | --- | --- | --- | --- | --- | --- | --- |
| 5.04 ± 1.12 | 0.04 ± 0.001 | 1.89 ± 0.025 |  |  |  |  | Cc1ncsc1-c1ccc(CNC(=O)[C@@H]2C[C@H](O)CN2C(=O)[C@@H](NC(=O)CCOCCOCCOCCN2CCN(c3cc(Nc4cc(C5CC5)[nH]n4)nc(Nc4ccc(CC#N)cc4)n3)CC2)C(C)(C)C)cc1 [4-a^neg] |
|  |  |  | 0.01265 | -0.4511 | 0.01692 | -0.3786 | CC(=O)N[C@H](C(=O)N1C[C@H](O)C[C@H]1C(=O)NCc1ccc(-c2scnc2C)cc1OCCOCCOCCOCCNC(=O)c1cc(Nc2cc(C3CC3)[nH]n2)nc(Nc2ccc(CC#N)cc2)n1)C(C)(C)C [5-b] |
|  |  |  | 0.2879 | 0.1111 | 0.4778 | 0.0741 | CC(=O)N[C@H](C(=O)N1C[C@H](O)C[C@H]1C(=O)NCc1ccc(-c2scnc2C)cc1OCCOCCOCCOCCOCCC(=O)N1CCN(c2ccc(Nc3ncc(Cl)c(Nc4ccccc4C(N)=O)n3)cc2)CC1)C(C)(C)C [6-e] |
